Literature values, collected in PubChem BioAssay AID1259409 (Chemical Carcinogenesis Research Information System (CCRIS), 2018).

System: rodent chemically induced tumor inhibition, incidence and multiplicity
Test: CCRIS tumor inhibitor studies

S=C=NCCCc1ccccc1
tumour outcome (control, treated, inhibition, significance) (Carcinogen: 4-(METHYLNITROSAMINO)-1-(3-PYRIDYL)-1-BUTANONE, 64091-91-4, Dose [Inhibitor]: 0, 0.2 UMOL 1/D FOR 4 D ADMINISTERED PRIOR TO CARCINOGEN TREATMENT (STUDY DURATION: 116 D), Route [Inhibitor]: GAVAGE, Species: MOUSE, Strain/Sex: STRAIN A, Target Tissue: Type of Lesion: LUNG: ADENOMA, Dose [Carcinogen]: 10 UMOL ONCE 2 HR AFTER FINAL DOSE OF INHIBITOR, Promoter: NONE USED): 100%, 90%, 10%, not significant
tumour outcome (control, treated, inhibition, significance) (Carcinogen: 4-(METHYLNITROSAMINO)-1-(3-PYRIDYL)-1-BUTANONE, 64091-91-4, Dose [Inhibitor]: 0, 1 UMOL 1/D FOR 4 D ADMINISTERED PRIOR TO CARCINOGEN TREATMENT (STUDY DURATION: 116 D), Route [Inhibitor]: GAVAGE, Species: MOUSE, Strain/Sex: STRAIN A, Target Tissue: Type of Lesion: LUNG: ADENOMA, Dose [Carcinogen]: 10 UMOL ONCE 2 HR AFTER FINAL DOSE OF INHIBITOR, Promoter: NONE USED): 100%, 75%, 25%, not significant
tumour outcome (control, treated, inhibition, significance) (Carcinogen: 4-(METHYLNITROSAMINO)-1-(3-PYRIDYL)-1-BUTANONE, 64091-91-4, Dose [Inhibitor]: 0, 5 UMOL 1/D FOR 4 D ADMINISTERED PRIOR TO CARCINOGEN DOSE (STUDY DURATION: 116 D), Route [Inhibitor]: GAVAGE, Species: MOUSE, Strain/Sex: STRAIN-A, Target Tissue: Type of Lesion: LUNG: ADENOMA, Dose [Carcinogen]: 10 UMOL IN SALINE ADMINISTERED 2 HR POST LAST AGENT DOSE, Promoter: NONE USED): 100%, 37%, 63%, p<0.001
tumour outcome (control, treated, inhibition, significance) (Carcinogen: 4-(N-NITROSOMETHYLAMINO)-1-(3-PYRIDYL)-1-BUTANONE, 64091-91-4, Dose [Inhibitor]: 0, 5 UMOL/D FOR 4 CONSECUTIVE DAYS (STUDY DURATION: 16.5 WK), Route [Inhibitor]: GAVAGE, Species: MOUSE, Strain/Sex: STRAIN-A/FEMALE, Target Tissue: Type of Lesion: LUNG: ADENOMA, Dose [Carcinogen]: 10 UMOL ONCE 2 HR POST LAST AGENT DOSE, Promoter: NONE USED): 100%, 37%, 63%, not calculated
tumour outcome (control, treated, inhibition, significance) (Carcinogen: 4-METHYLNITROSAMINO-1-(3-PYRIDYL)-1-BUTANONE,64091-91-4, Dose [Inhibitor]: 0, 5 UMOL 1/D FOR 4 D ADMINISTERED PRIOR TO CARCINOGEN TREATMENT (STUDY DURATION 116 D), Route [Inhibitor]: GAVAGE, Species: MOUSE, Strain/Sex: STRAIN A, Target Tissue: Type of Lesion: LUNG: ADENOMA, Dose [Carcinogen]: 10 UMOL ONCE 2 HR AFTER FINAL DOSE OF INHIBITOR, Promoter: NONE USED): 100%, 11%, 89%, p<0.05
tumour outcome (control, treated, inhibition, significance) (Carcinogen: N-NITROSOMETHYLBENZYLAMINE, 937-40-6, Dose [Inhibitor]: 0, 0.4 UMOL/G IN DIET FOR 25 WK BEGINNING 2 WK PRIOR TO CARCINOGEN TREATMENT (STUDY DURATION: 25 WK), Route [Inhibitor]: ORAL, Species: RAT, Strain/Sex: F344/MALE, Target Tissue: Type of Lesion: ESOPHAGUS: TUMOR, Dose [Carcinogen]: 0.5 MG/KG BW IN 20% DMSO 1/WK FOR 15 WK, Promoter: NONE USED): 100%, 7%, 93%, p<0.05
tumour outcome (control, treated, inhibition, significance) (Carcinogen: N-NITROSOMETHYLBENZYLAMINE, 937-40-6, Dose [Inhibitor]: 0, 1 UMOL/G IN DIET FOR 25 WK BEGINNING 2 WK PRIOR TO CARCINOGEN TREATMENT (STUDY DURATION: 25 WK), Route [Inhibitor]: ORAL, Species: RAT, Strain/Sex: F344/MALE, Target Tissue: Type of Lesion: ESOPHAGUS: TUMOR, Dose [Carcinogen]: 0.5 MG/KG BW IN 20% DMSO 1/WK FOR 15 WK, Promoter: NONE USED): 100%, 7%, 93%, p<0.05
tumour outcome (control, treated, inhibition, significance) (Carcinogen: N-NITROSOMETHYLBENZYLAMINE, 937-40-6, Dose [Inhibitor]: 0, 2.5 UMOL/G IN DIET FOR 25 WK BEGINNING 2 WK PRIOR TO CARCINOGEN TREATMENT (STUDY DURATION: 25 WK), Route [Inhibitor]: ORAL, Species: RAT, Strain/Sex: F344/MALE, Target Tissue: Type of Lesion: ESOPHAGUS: TUMOR, Dose [Carcinogen]: 0.5 MG/KG BW IN 20% DMSO 1/WK FOR 15 WK, Promoter: NONE USED): 100%, 0%, 100%, p<0.05

C[C@@]12C=Cc3occc3[C@H]1CC[C@@]13C[C@@H](CC[C@H]12)[C@@](O)(CO)C3
tumour outcome (control, treated, inhibition, significance) (Carcinogen: 7,12-DIMETHYLBENZ[A]ANTHRACENE, 57-97-6, Dose [Inhibitor]: 0, 0.2 G/KG OF DIET OF 50:50 MIXTURE OF KAHWEOL AND CAFESTOL FOR 14 WK BEGINNING 1 WK PRIOR TO CARCINOGEN TREATMENT (STU, Route [Inhibitor]: ORAL, Species: HAMSTER, Strain/Sex: SYRIAN/FEMALE, Target Tissue: Type of Lesion: BUCCAL POUCH: TUMOR, Dose [Carcinogen]: 0.5% SOLUTION IN MINERAL OIL PAINTED ON LEFT BUCCAL POUCH 3/WK FOR 13 WK, Promoter: NONE USED): 14/14 (100%), 14/14 (100%), 0%, not significant
tumour outcome (control, treated, inhibition, significance) (Carcinogen: 7,12-DIMETHYLBENZ[A]ANTHRACENE, 57-97-6, Dose [Inhibitor]: 0, 2 G/KG OF DIET OF 50:50 MIXTURE OF KAHWEOL AND CAFESTOL FOR 14 WK BEGINNING 1 WK PRIOR TO CARCINOGEN TREATMENT (STUDY, Route [Inhibitor]: ORAL, Species: HAMSTER, Strain/Sex: SYRIAN/FEMALE, Target Tissue: Type of Lesion: BUCCAL POUCH: TUMOR, Dose [Carcinogen]: 0.5% SOLUTION IN MINERAL OIL PAINTED ON LEFT BUCCAL POUCH 3/WK FOR 13 WK, Promoter: NONE USED): 14/14 (100%), 14/15 (93%), 7%, not significant

COc1cc([C@H]2Oc3cc([C@H]4Oc5cc(O)cc(O)c5C(=O)[C@@H]4O)ccc3O[C@@H]2CO)ccc1O
outcome (Carcinogen: N-Butyl-N-(4-hydroxybutyl)nitrosamine, 3817-11-6, Dose [Inhibitor]: 200 mg/kg bw 1 wk before carcinogen, dose duration 51 wk, study duration 56 wk, Route [Inhibitor]: Oral (gavage) 5 d/wk, Species: Mouse, Strain/Sex: ICR/Male, Target Tissue: Type of Lesion: Urinary Bladder: carcinoma, Dose [Carcinogen]: 0, 0.5% in drinking water for 6 wk, Promoter: None): 52%, 4.1%, p=0.001

O=c1cc[nH]c(=O)[nH]1
tumour outcome (control, treated, inhibition, significance) (Carcinogen: 7,12-DIMETHYLBENZ[A]ANTHRACENE, 57-97-6, Dose [Inhibitor]: 1.5% IN 20% PROTEIN DIET (STUDY DURATION: 100 D), Route [Inhibitor]: ORAL, Species: RAT, Strain/Sex: STRAIN-CB/FEMALE, Target Tissue: Type of Lesion: MAMMARY GLAND: TUMOR, Dose [Carcinogen]: 15 MG IN 1 ML ARACHIS OIL 1/2 WK FOR 3 DOSES STARTING AT 30 D OF AGE, Promoter: NONE USED): 18/18 (100%), 18/21 (86%), 14%, not calculated
tumour outcome (control, treated, inhibition, significance) (Carcinogen: N-METHYL-N-NITROSOUREA, 684-93-5, Dose [Inhibitor]: 0, 3% IN DIET FOR 20 WK BEGINNING POST LAST CARCINOGEN DOSE (STUDY DURATION: 24 WK), Route [Inhibitor]: ORAL, Species: RAT, Strain/Sex: F344/MALE, Target Tissue: Type of Lesion: LUNG: ADENOMA, Dose [Carcinogen]: 20 MG/KG 2/WK FOR 4 WK, Promoter: NONE USED): 3/11 (27%), 0/9 (0%), 100%, not significant
tumour outcome (control, treated, inhibition, significance) (Carcinogen: N-METHYL-N-NITROSOUREA, 684-93-5, Dose [Inhibitor]: 0, 3% IN DIET FOR 20 WK BEGINNING POST LAST CARCINOGEN DOSE (STUDY DURATION: 24 WK), Route [Inhibitor]: ORAL, Species: RAT, Strain/Sex: F344/MALE, Target Tissue: Type of Lesion: THYROID: ADENOMA, CARCINOMA, Dose [Carcinogen]: 20 MG/KG 2/WK FOR 4 WK, Promoter: NONE USED): 6/11 (55%), 1/11 (10%), 82%, p>0.05

CC(C)=CCc1cc(/C=C/C(=O)O)cc(CC=C(C)C)c1O
tumour outcome (control, treated, inhibition, significance) (Carcinogen: FERRIC NITRILOTRIACETATE, 16448-54-7, Dose [Inhibitor]: 0, 350 UG/MOUSE IN OLIVE OIL TWICE/D FOR 5 D/WK FOR 1 YR BEGINNING POST CARCINOGEN TREATMENT (STUDY DURATION: 1 YR AND 8, Route [Inhibitor]: ORAL, Species: MOUSE, Strain/Sex: DDY/MALE, Target Tissue: Type of Lesion: KIDNEY: CARCINOMA, Dose [Carcinogen]: 43.6 MG/KG BW/D TWICE/WK FOR FIRST 8 WK, Promoter: NONE): 1/9 (11%), 0/6 (0%), 100%, not significant

CCOC(=O)/C=C(/C=C/C=C(C)/C=C/c1c(C)cc(OC)c(C)c1C)C(F)(F)F
tumour outcome (control, treated, inhibition, significance) (Carcinogen: 7,12-DIMETHYLBENZ[A]ANTHRACENE, 57-97-6, Dose [Inhibitor]: 140 NMOL IN 0.2 ML ACETONE 2/WK (D 1 AND D 4 OF EACH WK) 1 HR BEFORE EACH PROMOTER APPLICATION STARTING 14 D AFTER CARCI, Route [Inhibitor]: DERMAL, Species: MOUSE, Strain/Sex: CD-1/FEMALE, Target Tissue: Type of Lesion: SKIN: PAPILLOMA, Dose [Carcinogen]: 0.2 UMOL IN 0.2 ML ACETONE ONCE, Promoter: 12-O-TETRADECANOYLPHORBOL-13-ACETATE, 16561-29-8): 90%, 100%, -11%, not significant
